# Data: paper PMC12770539 (Scientific Reports, 2025)
# Tests used:
# [1] = cited from earlier work
# [2] = TGA analysis; type: physicochemical
# [3] = oral administration, 30 mg/kg dose; cited from earlier work
# [4] = cited from earlier work; remark: listed apart in the source
smiles,measurement,setting,value
C[C@@H]1O[C@@H]1P(=O)(O)O.NC(CO)(CO)CO [Fosfomycin tromethamine],elimination half-life,[1],2 h
same,serum concentration (Cmax),[1]; single 3-gm dose,26.1 (± 9.1) µg/mL
C[C@@H]1O[C@@H]1P(=O)(O)O [Fosfomycin],temperature at which degradation initiates (TGA),[2],150 °C
same,temperature range of marked weight loss (TGA),[2],200–400 °C
same,calculated Tmax,[3],3.00 ± 0.00 h
same,mean peak concentration (Cmax),[3],3600 ± 960 ng/mL
Cc1ncc([N+](=O)[O-])n1CCO [Metronidazole],"local irritation, share of users",[4]; vaginal administration,10–15%
same,cure rate for bacterial vaginosis,"[4]; vaginal suppositories, within 7 days",~80%
C[C@@H]1O[C@@H]1P(=O)(O)O [Fosfomycin calcium],absorption,[1]; oral,10–30%
